Experimental data: article PMC10227015, “From a drug repositioning to a structure-based drug design approach to tackle acute lymphoblastic leukemia” (Nature Communications, 2023)

Experiments:
Test in all cases: KINOMEscan competition binding
Details in all cases: OR0642 1 µM; read-out: %Control
CDK2 = molecular target: T1, CDK2 (Homo sapiens, UniProt P24941)
T1 construct: purchased Eurofins DiscoverX (KINOMEscan scanEDGE 97)
Description: (§1) Kinome profiling was provided by Eurofins DiscoverX Corporation. Determination of the % control activity for 97 kinases was obtained through an active site-directed competition binding assay that quantitatively measure interactions between compound and kinases. OR0642 was used at 1 μM.
(§2) Supplementary Table 3. KINOMEscan™ Profiling of OR0642. Competition binding assay to
(§3) quantitatively measure interactions between OR0642 (1 µM) and 97 human kinases and disease
(§4) relevant mutant variants.

CDK3 = molecular target: T2, CDK3 (Homo sapiens, UniProt Q00526)
T2 construct: purchased Eurofins DiscoverX (KINOMEscan scanEDGE 97)
Description: as §1, §2, §3, §4

FAK = molecular target: T3, FAK (Homo sapiens, UniProt Q05397)
T3 construct: purchased Eurofins DiscoverX (KINOMEscan scanEDGE 97)
Description: as §1, §2, §3, §4

FGFR2 = molecular target: T4, FGFR2 (Homo sapiens, UniProt P21802)
T4 construct: purchased Eurofins DiscoverX (KINOMEscan scanEDGE 97)
Description: as §1, §2, §3, §4

INSR = molecular target: T5, INSR (Homo sapiens, UniProt P06213)
T5 construct: purchased Eurofins DiscoverX (KINOMEscan scanEDGE 97)
Description: as §1, §2, §3, §4

ERBB2 = molecular target: T6, ERBB2 (Homo sapiens, UniProt P04626)
T6 construct: purchased Eurofins DiscoverX (KINOMEscan scanEDGE 97)
Description: as §1, §2, §3, §4

JNK1 = molecular target: T7, JNK1 (Homo sapiens, UniProt P45983)
T7 construct: purchased Eurofins DiscoverX (KINOMEscan scanEDGE 97)
Description: as §1, §2, §3, §4

CSF1R = molecular target: T8, CSF1R (Homo sapiens, UniProt P07333)
T8 construct: purchased Eurofins DiscoverX (KINOMEscan scanEDGE 97)
Description: as §1, §2, §3, §4

AXL = molecular target: T9, AXL (Homo sapiens, UniProt P30530)
T9 construct: purchased Eurofins DiscoverX (KINOMEscan scanEDGE 97)
Description: as §1, §2, §3, §4

PAK2 = molecular target: T10, PAK2 (Homo sapiens, UniProt Q13177)
T10 construct: purchased Eurofins DiscoverX (KINOMEscan scanEDGE 97)
Description: as §1, §2, §3, §4

CDK7 = molecular target: T11, CDK7 (Homo sapiens, UniProt P50613)
T11 construct: purchased Eurofins DiscoverX (KINOMEscan scanEDGE 97)
Description: as §1, §2, §3, §4

PDGFRB = molecular target: T12, PDGFRB (Homo sapiens, UniProt P09619)
T12 construct: purchased Eurofins DiscoverX (KINOMEscan scanEDGE 97)
Description: as §1, §2, §3, §4

PIK3CG = molecular target: T13, PIK3CG (Homo sapiens, UniProt P48736)
T13 construct: purchased Eurofins DiscoverX (KINOMEscan scanEDGE 97)
Description: as §1, §2, §3, §4

PIM1 = molecular target: T14, PIM1 (Homo sapiens, UniProt P11309)
T14 construct: purchased Eurofins DiscoverX (KINOMEscan scanEDGE 97)
Description: as §1, §2, §3, §4

PAK4 = molecular target: T15, PAK4 (Homo sapiens, UniProt O96013)
T15 construct: purchased Eurofins DiscoverX (KINOMEscan scanEDGE 97)
Description: as §1, §2, §3, §4

AURKB = molecular target: T16, AURKB (Homo sapiens, UniProt Q96GD4)
T16 construct: purchased Eurofins DiscoverX (KINOMEscan scanEDGE 97)
Description: as §1, §2, §3, §4

BRAF(V600E) = molecular target: T17, BRAF(V600E) (Homo sapiens, UniProt P15056, V600E)
T17 construct: purchased Eurofins DiscoverX (KINOMEscan scanEDGE 97)
Description: as §1, §2, §3, §4

DYRK1B = molecular target: T18, DYRK1B (Homo sapiens, UniProt Q9Y463)
T18 construct: purchased Eurofins DiscoverX (KINOMEscan scanEDGE 97)
Description: as §1, §2, §3, §4

BMPR2 = molecular target: T19, BMPR2 (Homo sapiens, UniProt Q13873)
T19 construct: purchased Eurofins DiscoverX (KINOMEscan scanEDGE 97)
Description: as §1, §2, §3, §4

IKK-alpha = molecular target: T20, IKK-alpha (Homo sapiens, UniProt O15111)
T20 construct: purchased Eurofins DiscoverX (KINOMEscan scanEDGE 97)
Description: as §1, §2, §3, §4

CDK11 = molecular target: T21, CDK11 (Homo sapiens, UniProt Q9BWU1)
T21 construct: purchased Eurofins DiscoverX (KINOMEscan scanEDGE 97)
Description: as §1, §2, §3, §4

JNK3 = molecular target: T22, JNK3 (Homo sapiens, UniProt P53779)
T22 construct: purchased Eurofins DiscoverX (KINOMEscan scanEDGE 97)
Description: as §1, §2, §3, §4

PAK1 = molecular target: T23, PAK1 (Homo sapiens, UniProt Q13153)
T23 construct: purchased Eurofins DiscoverX (KINOMEscan scanEDGE 97)
Description: as §1, §2, §3, §4

LKB1 = molecular target: T24, LKB1 (Homo sapiens, UniProt Q15831)
T24 construct: purchased Eurofins DiscoverX (KINOMEscan scanEDGE 97)
Description: as §1, §2, §3, §4

ERK1 = molecular target: T25, ERK1 (Homo sapiens, UniProt P27361)
T25 construct: purchased Eurofins DiscoverX (KINOMEscan scanEDGE 97)
Description: as §1, §2, §3, §4

EPHA2 = molecular target: T26, EPHA2 (Homo sapiens, UniProt P29317)
T26 construct: purchased Eurofins DiscoverX (KINOMEscan scanEDGE 97)
Description: as §1, §2, §3, §4

ABL1-phosphorylated = molecular target: T27, ABL1-phosphorylated (Homo sapiens, UniProt P00519)
T27 construct: purchased Eurofins DiscoverX (KINOMEscan scanEDGE 97)
Description: as §1, §2, §3, §4

MEK2 = molecular target: T28, MEK2 (Homo sapiens, UniProt P36507)
T28 construct: purchased Eurofins DiscoverX (KINOMEscan scanEDGE 97)
Description: as §1, §2, §3, §4

DCAMKL1 = molecular target: T29, DCAMKL1 (Homo sapiens, UniProt O15075)
T29 construct: purchased Eurofins DiscoverX (KINOMEscan scanEDGE 97)
Description: as §1, §2, §3, §4

MKNK2 = molecular target: T30, MKNK2 (Homo sapiens, UniProt Q9HBH9)
T30 construct: purchased Eurofins DiscoverX (KINOMEscan scanEDGE 97)
Description: as §1, §2, §3, §4

IGF1R = molecular target: T31, IGF1R (Homo sapiens, UniProt P08069)
T31 construct: purchased Eurofins DiscoverX (KINOMEscan scanEDGE 97)
Description: as §1, §2, §3, §4

MET = molecular target: T32, MET (Homo sapiens, UniProt P08581)
T32 construct: purchased Eurofins DiscoverX (KINOMEscan scanEDGE 97)
Description: as §1, §2, §3, §4

CSNK1G2 = molecular target: T33, CSNK1G2 (Homo sapiens, UniProt P78368)
T33 construct: purchased Eurofins DiscoverX (KINOMEscan scanEDGE 97)
Description: as §1, §2, §3, §4

[1] = molecular target: T34, ABL1(E255K)-phosphorylated (Homo sapiens, UniProt P00519, E255K)
T34 construct: purchased Eurofins DiscoverX (KINOMEscan scanEDGE 97)
Description: as §1, §2, §3, §4

CSNK1D = molecular target: T35, CSNK1D (Homo sapiens, UniProt P48730)
T35 construct: purchased Eurofins DiscoverX (KINOMEscan scanEDGE 97)
Description: as §1, §2, §3, §4

RIOK2 = molecular target: T36, RIOK2 (Homo sapiens, UniProt Q9BVS4)
T36 construct: purchased Eurofins DiscoverX (KINOMEscan scanEDGE 97)
Description: as §1
(§5) Supplementary Table 3. KINOMEscan™ Profiling of OR0642. Competition binding assay to quantitatively measure interactions between OR0642 (1 µM) and 97 human kinases and disease relevant mutant variants.
(§6) Target Gene Symbol %Control Target Gene Symbol %Control […]

SRC = molecular target: T37, SRC (Homo sapiens, UniProt P12931)
T37 construct: purchased Eurofins DiscoverX (KINOMEscan scanEDGE 97)
Description: as §1, §5, §6

SNARK = molecular target: T38, SNARK (Homo sapiens, UniProt Q9H093)
T38 construct: purchased Eurofins DiscoverX (KINOMEscan scanEDGE 97)
Description: as §1, §5, §6

PIM3 = molecular target: T39, PIM3 (Homo sapiens, UniProt Q86V86)
T39 construct: purchased Eurofins DiscoverX (KINOMEscan scanEDGE 97)
Description: as §1, §5, §6

ULK2 = molecular target: T40, ULK2 (Homo sapiens, UniProt Q8IYT8)
T40 construct: purchased Eurofins DiscoverX (KINOMEscan scanEDGE 97)
Description: as §1, §5, §6

YANK3 = molecular target: T41, YANK3 (Homo sapiens, UniProt Q86UX6)
T41 construct: purchased Eurofins DiscoverX (KINOMEscan scanEDGE 97)
Description: as §1, §5, §6

`CCCN(c1nc(-c2nc(N)cc(N)n2)cs1)c1cc(-c2ccc(S(=O)(=O)N3CCN(C)CC3)cc2C(F)(F)F)ccc1C` [OR0642] gave a remaining binding at 1 µM (CDK2) of 100%, a remaining binding at 1 µM (CDK3) of 97% and a remaining binding at 1 µM (FAK) of 100%. For the same compound, the remaining binding at 1 µM (FGFR2) was 89%, the remaining binding at 1 µM (INSR) was 99% and the remaining binding at 1 µM (ERBB2) was 100%. For the same compound, the remaining binding at 1 µM (JNK1) was 93%, the remaining binding at 1 µM (CSF1R) was 100% and the remaining binding at 1 µM (AXL) was 89%. For the same compound, the remaining binding at 1 µM (PAK2) was 98%, the remaining binding at 1 µM (CDK7) was 94% and the remaining binding at 1 µM (PDGFRB) was 100%. It also gave a remaining binding at 1 µM (PIK3CG) of 100%, a remaining binding at 1 µM (PIM1) of 100% and a remaining binding at 1 µM (PAK4) of 91%. For the same compound, the remaining binding at 1 µM (AURKB) was 85%, the remaining binding at 1 µM (BRAF(V600E)) was 98% and the remaining binding at 1 µM (DYRK1B) was 100%. For the same compound, the remaining binding at 1 µM (BMPR2) was 94%, the remaining binding at 1 µM (IKK-alpha) was 65% and the remaining binding at 1 µM (CDK11) was 100%. For the same compound, the remaining binding at 1 µM (JNK3) was 81%, the remaining binding at 1 µM (PAK1) was 100% and the remaining binding at 1 µM (LKB1) was 99%. The remaining binding at 1 µM (ERK1) was 86%, the remaining binding at 1 µM (EPHA2) was 90% and the remaining binding at 1 µM (ABL1-phosphorylated) was 99%. The remaining binding at 1 µM (MEK2) was 96%, the remaining binding at 1 µM (DCAMKL1) was 81% and the remaining binding at 1 µM (MKNK2) was 79%. For the same compound, the remaining binding at 1 µM (IGF1R) was 93%, the remaining binding at 1 µM (MET) was 100% and the remaining binding at 1 µM (CSNK1G2) was 91%. For the same compound, the remaining binding at 1 µM [1] was 96%, the remaining binding at 1 µM (CSNK1D) was 100% and the remaining binding at 1 µM (RIOK2) was 98%. The remaining binding at 1 µM (SRC) was 92%, the remaining binding at 1 µM (SNARK) was 88% and the remaining binding at 1 µM (PIM3) was 100%. For the same compound, the remaining binding at 1 µM (ULK2) was 95% and the remaining binding at 1 µM (YANK3) was 97%.
